Test results taken from patent US12018023B2 (NERVIANO MEDICAL SCIENCES S.R.L., priority 2018, dated 2024).
Structures can show the parent of a compound that is named as a salt.

Experiments:
[1] = biological target: T1, IDH1^R132H homodimer enzyme (Homo sapiens, UniProt O75874, R132H); assay: NADPH depletion assay, IDH1 R132H; assay type: biochemical
T1 construct: purchased not specified
Method: (§1) IDH mutated enzyme activity converting alpha-ketoglutarate to 2-hydroxyglutaric acid is measured using a NADPH depletion assay. In the assay the remaining cofactor is measured at the end of the reaction with the addition of a catalytic excess of diaphorase and resazurin, to generate a fluorescent signal in proportion to the amount of NADPH remaining. IDH1 WT enzyme as well as mutated isoforms IDH1^R132H, IDH1^R132C, and IDH^2R172K enzymes are commercially available proteins (see e.g. Sino Biological, Abcam, Active Motif or Creative BioMart).
(§2) IDH1^R132H homodimer enzyme are diluted to 8 nM, in 10 μL of Assay Buffer (150 mM NaCl, 50 mM Tris-HCl pH 7.6, 10 mM MgCl2, 0.001% Triton X-100, 4 mM β-mercaptoethanol); 0.2 uL of test compound, previously serially diluted 1 to 3, >10 experimental points from 1 mM in DMSO, is added and the mixture is incubated for 15 minutes at room temperature. The reaction is started with the addition of 10 μL of Substrate Mix (12 uM NADPH, 3.4 mM alpha-ketoglutarate in Assay Buffer) and the mixture is incubated for 60 minutes at room temperature. The reaction is terminated with the addition of 5 μl of Detection Buffer (100 μg/mL diaphorase, 30 μM resazurin, in IX Assay Buffer), and is incubated for 15 minute before reading on a ViewLux as platereader at Ex544/Em590.

IDH1^R132C = biological target: T2, IDH1^R132C (Homo sapiens, UniProt O75874, R132C); assay: NADPH depletion assay, IDH1 R132C; assay type: biochemical
T2 construct: purchased not specified
Method: as §1, §2
Compounds are assayed for their activity against IDH1^R132C following the same assay as above with the following modifications: IDH1^R132C and alpha-ketoglutarate final concentrations in the Assay Buffer is 2 nM and 0.14 mM, respectively.

T1 sequence (O75874 whole entry R132H): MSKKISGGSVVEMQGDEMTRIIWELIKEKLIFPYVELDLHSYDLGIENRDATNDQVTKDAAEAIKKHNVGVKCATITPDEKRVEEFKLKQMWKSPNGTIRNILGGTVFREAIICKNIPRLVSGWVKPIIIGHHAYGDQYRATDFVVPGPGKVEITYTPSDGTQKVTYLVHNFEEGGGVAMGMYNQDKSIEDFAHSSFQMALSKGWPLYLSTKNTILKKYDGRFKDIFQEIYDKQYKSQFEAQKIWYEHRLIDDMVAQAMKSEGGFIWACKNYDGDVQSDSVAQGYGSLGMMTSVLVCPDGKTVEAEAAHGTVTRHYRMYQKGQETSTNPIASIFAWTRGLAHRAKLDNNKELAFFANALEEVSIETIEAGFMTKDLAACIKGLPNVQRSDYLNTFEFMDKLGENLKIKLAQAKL
T2 sequence (O75874 whole entry R132C): as the sequence (O75874 whole entry R132H) above, with H132C counted along it

CCCn1c(=O)ccc2cnc(N[C@@H](C)c3ccc(CN4CCN(C(C)=O)CC4)cc3)nc21 [cpd 103, 2-{[(1S)-1-{4-[(4-acetylpiperazin-1-yl)methyl]phenyl}ethyl]amino}-8-propylpyrido[2,3-d]pyrimidin-7(8H)-one]
IC50 [1]: 1590 nM
IC50 (IDH1^R132C): 634 nM

C[C@H](Nc1ncc2ccc(=O)n(CC(C)(C)C)c2n1)c1ccc(C(=O)NC2CCCCC2)cc1 [cpd 81, N-cyclohexyl-4-[(1S)-1-{[8-(2,2-dimethylpropyl)-7-oxo-pyrido[2,3-d]pyrimidin-2-yl]amino}ethyl] benzamide]
IC50 [1]: 288 nM
IC50 (IDH1^R132C): 172 nM

C[C@H](Nc1ncc2ccc(=O)n(CC(C)(C)C)c2n1)c1ccc(S(C)(=O)=O)cc1 [cpd 137, 8-(2,2-dimethylpropyl)-2-({(1S)-1-[4-(methylsulfonyl)phenyl]ethyl}amino)pyrido[2,3-d]pyrimidin-7(8H)-one]
IC50 [1]: 3470 nM
IC50 (IDH1^R132C): 1300 nM

COc1ccc(Cn2c(=O)ccc3cnc(N[C@@H](C)c4ccc(Cl)cc4)nc32)cc1 [cpd 21, 2-{[(1S)-1-(4-chlorophenyl)ethyl]amino}-8-(4-methoxybenzyl)pyrido[2,3-d]pyrimidin-7(8H)-one]
IC50 [1]: 2490 nM
IC50 (IDH1^R132C): 586 nM

CCn1c(=O)ccc2cnc(N[C@@H](C)c3ccc(CN4CCN(C(=O)OC(C)(C)C)CC4)cc3)nc21 [cpd 185, tert-butyl 4-(4-{(1S)-1-[(8-ethyl-7-oxo-7,8-dihydropyrido[2,3-d]pyrimidin-2-yl)amino]ethyl}benzyl)piperazine-1-carboxylate]
IC50 [1]: 2370 nM
IC50 (IDH1^R132C): 1270 nM

Cc1nc(N[C@@H](C)c2ccc(CN3CCC(F)(F)CC3)cc2)nc2c1ccc(=O)n2CC(C)C [cpd 118]
IC50 [1]: 1300 nM
IC50 (IDH1^R132C): 923 nM

C[C@H](Nc1ncc2ccc(=O)n(CC3(C)COC3)c2n1)c1ccc2ccccc2c1 [cpd 45, 8-[(3-methyloxetan-3-yl)methyl]-2-{[(1S)-1-(naphthalen-2-yl)ethyl]amino}pyrido[2,3-d]pyrimidin-7(8H)-one]
IC50 [1]: 554 nM
IC50 (IDH1^R132C): 206 nM

C[C@H](Nc1ncc2ccc(=O)n(CC(C)(C)C)c2n1)c1ccc(CN2CCNCC2)cc1 [cpd 138, 8-(2,2-Dimethyl-propyl)-2-[(S)-1-(4-piperazin-1-ylmethyl-phenyl)-ethylamino]-8H-pyrido[2,3-d]pyrimidin-7-one hydrochloride]
IC50 [1]: 2260 nM
IC50 (IDH1^R132C): 777 nM

C[C@H](Nc1ncc2ccc(=O)n(Cc3c(F)cccc3F)c2n1)c1ccc(CO)cc1 [cpd 92, 8-(2,6-difluorobenzyl)-2-({(1S)-1-[4-(hydroxymethyl)phenyl]ethyl}amino)pyrido[2,3-d]pyrimidin-7(8H)-one]
IC50 [1]: 713 nM
IC50 (IDH1^R132C): 715 nM

COC(=O)c1ccc([C@H](C)Nc2ncc3ccc(=O)n(CC4(C)COC4)c3n2)cc1 [cpd 10, methyl 4-[(1S)-1-({8-[(3-methyloxetan-3-yl)methyl]-7-oxo-pyrido[2,3-d]pyrimidin-2-yl}amino)ethyl]benzoate]
IC50 [1]: 3850 nM
IC50 (IDH1^R132C): 1920 nM

C[C@H](Nc1ncc2ccc(=O)n(Cc3c(F)cccc3F)c2n1)c1ccc(C(=O)NC2CCN(C)CC2)cc1 [cpd 76, 4-[(1S)-1-{[8-(2,6-difluorobenzyl)-7-oxo-pyrido[2,3-d]pyrimidin-2-yl]amino}ethyl]-N-(1-methylpiperidin-4-yl)benzamide]
IC50 [1]: 2380 nM
IC50 (IDH1^R132C): 3630 nM

C[C@H](Nc1ncc2ccc(=O)n(CC(C)(C)C)c2n1)c1ccc(CO)c(F)c1 [cpd 90, 8-(2,2-dimethylpropyl)-2-({(1S)-1-[3-fluoro-4-(hydroxymethyl)phenyl]ethyl}amino)pyrido[2,3-d]pyrimidin-7(8H)-one]
IC50 [1]: 697 nM
IC50 (IDH1^R132C): 391 nM

C[C@H](Nc1ncc2cc(F)c(=O)n(CC(C)(C)C)c2n1)c1ccccc1 [cpd 47, 8-(2,2-Dimethyl-propyl)-6-fluoro-2-((S)-1-phenyl-ethylamino)-8H-pyrido[2,3-d]pyrimidin-7-one]
IC50 [1]: 1810 nM
IC50 (IDH1^R132C): 597 nM

C[C@H](Nc1ncc2ccc(=O)n(CC(C)(C)C)c2n1)c1ccc(-c2ccncc2)cc1 [cpd 131, 8-(2,2-dimethylpropyl)-2-({(1S)-1-[4-(pyridin-4-yl)phenyl]ethyl}amino)pyrido[2,3-d]pyrimidin-7(8H)-one]
IC50 [1]: 284 nM
IC50 (IDH1^R132C): 170 nM

C[C@H](Nc1ncc2ccc(=O)n(CC(C)(C)C)c2n1)c1ccc(O)cc1 [cpd 145, 8-(2,2-Dimethyl-propyl)-2-[(S)-1-(4-hydroxy-phenyl)-ethylamino]-8H-pyrido[2,3-d]pyrimidin-7-one]
IC50 [1]: 3560 nM
IC50 (IDH1^R132C): 1320 nM

C[C@H](Nc1ncc2ccc(=O)n(Cc3c(F)cccc3F)c2n1)c1ccc(C(=O)NC2CCOCC2)cc1 [cpd 78, 4-[(1S)-1-{[8-(2,6-difluorobenzyl)-7-oxo-pyrido[2,3-d]pyrimidin-2-yl]amino}ethyl]-N-(tetrahydro-2H-pyran-4-yl) benzamide]
IC50 [1]: 896 nM
IC50 (IDH1^R132C): 1380 nM

CC(Nc1ncc2ccc(=O)n(CC(C)(C)C)c2n1)C12CC3CC(CC(C3)C1)C2 (centres unmarked) [cpd 44, 8-(2,2-dimethylpropyl)-2-{[1-(tricyclo[3.3.1.1^3,7]dec-1-yl)ethyl]amino}pyrido[2,3-d]pyrimidin-7(8H)-one]
IC50 [1]: 1090 nM
IC50 (IDH1^R132C): 811 nM

C[C@H](Nc1ncc2ccc(=O)n(CC(C)(C)C(N)=O)c2n1)c1ccc2ccccc2c1 [cpd 122, 2,2-dimethyl-3-[2-{[(1S)-1-(naphthalen-2-yl)ethyl]amino}-7-oxopyrido[2,3-d]pyrimidin-8(7H)-yl]propanamide]
IC50 [1]: 717 nM
IC50 (IDH1^R132C): 386 nM

C=CC(=O)N1CCN(Cc2ccc([C@H](C)Nc3ncc4ccc(=O)n(CCN=[N+]=[N-])c4n3)cc2)CC1 [cpd 182, 2-{[(1S)-1-{4-[(4-acryloylpiperazin-1-yl)methyl]phenyl}ethyl]amino}-8-(2-azidoethyl)pyrido[2,3-d]pyrimidin-7(8H)-one]
IC50 [1]: 103 nM
IC50 (IDH1^R132C): 61 nM

Cc1cc(=O)n(CC(C)(C)C)c2nc(N[C@@H](C)c3ccc(CN4CCCC(F)(F)C4)cc3)ncc12 [cpd 60, 2-{(S)-1-[4-(3,3-Difluoro-piperidin-1-ylmethyl)-phenyl]-ethylamino}-8-(2,2-dimethyl-propyl)-5-methyl-8H-pyrido [2,3-d]pyrimidin-7-one]
IC50 [1]: 341 nM
IC50 (IDH1^R132C): 139 nM

C[C@H](Nc1ncc2ccc(=O)n(CCF)c2n1)c1ccc(Cl)cc1 [cpd 17, 2-{[(1S)-1-(4-chlorophenyl)ethyl]amino}-8-(2-fluoroethyl)pyrido[2,3-d]pyrimidin-7(8H)-one]
IC50 [1]: 4910 nM
IC50 (IDH1^R132C): 1890 nM

CCCn1c(=O)ccc2cnc(N[C@@H](C)c3ccc(CN4CCCCCC4)cc3)nc21 [cpd 102, 2-({(1S)-1-[4-(azepan-1-ylmethyl)phenyl]ethyl}amino)-8-propylpyrido[2,3-d]pyrimidin-7(8H)-one]
IC50 [1]: 4320 nM
IC50 (IDH1^R132C): 2800 nM

COCCn1c(=O)ccc2cnc(N[C@@H](C)c3ccc(CN4CCC(F)(F)CC4)cc3)nc21 [cpd 114, 2-{[(1S)-1-{4-[(4,4-difluoropiperidin-1-yl)methyl]phenyl}ethyl]amino}-8-(2-methoxyethyl)pyrido[2,3-d]pyrimidin-7(8H)-one]
IC50 [1]: 2370 nM
IC50 (IDH1^R132C): 1910 nM

CC(C)[C@H](C)n1c(=O)ccc2cnc(N[C@@H](C)c3ccc(OC4CCNCC4)cc3)nc21 [cpd 155, 8-((S)-1,2-Dimethyl-propyl)-2-{(S)-1-[4-(piperidin-4-yloxy)-phenyl]-ethylamino}-8H-pyrido[2,3-d]pyrimidin-7-one]
IC50 [1]: 455 nM
IC50 (IDH1^R132C): 147 nM

C[C@H](Nc1ncc2ccc(=O)n(CC(F)(CF)CF)c2n1)c1ccc(CN2CCC(F)(F)CC2)cc1 [cpd 107, 8-[2,3-difluoro-2-(fluoromethyl)propyl]-2-{[(1S)-1-{4-[(4,4-difluoropiperidin-1-yl)methyl]phenyl)ethyl]amino) pyrido[2,3-d]pyrimidin-7(8H)-one]
IC50 [1]: 722 nM
IC50 (IDH1^R132C): 459 nM

C[C@H](Nc1ncc2ccc(=O)n(Cc3ccc(F)cc3C(F)(F)F)c2n1)c1ccc(CN2CCC(F)(F)CC2)cc1 [cpd 115, 2-{[(1S)-1-{4-[(4,4-difluoropiperidin-1-yl)methyl]phenyl}ethyl]amino}-8-[4-fluoro-2-(trifluoromethyl)benzyl]pyrido[2,3-d]pyrimidin-7(8H)-one]
IC50 [1]: 672 nM
IC50 (IDH1^R132C): 825 nM

C[C@H](Nc1ncc2ccc(=O)n(CC(C)(C)O)c2n1)c1ccc(CN2CCC(F)(F)CC2)cc1 [cpd 119, 2-{(S)-1-[4-(4,4-Difluoro-piperidin-1-ylmethyl)-phenyl]-ethylamino}-8-(2-hydroxy-2-methyl-propyl)-8H-pyrido [2,3-d]pyrimidin-7-one]
IC50 [1]: 2230 nM
IC50 (IDH1^R132C): 1160 nM

CC(C)C(=O)N1CCN(Cc2ccc([C@H](C)Nc3ncc4ccc(=O)n(CC(C)(C)C)c4n3)cc2)CC1 [cpd 157, 8-(2,2-dimethylpropyl)-2-{[(1S)-1-(4-{[4-(2-methylpropanoyl)piperazin-1-yl]methyl}phenyl)ethyl]amino}-pyrido [2,3-d]pyrimidin-7(8H)-one]
IC50 [1]: 162 nM
IC50 (IDH1^R132C): 51 nM
